The text below walks through data of US20210087290A1, “COMPOUNDS WHICH SPECIFICALLY BIND TO CD38 FOR USE IN THE TREATMENT OF NEURODEGENERATIVE AND INFLAMMATORY DISEASES” (ENCEFA, priority 2017, published 2021).

Data set [1] deals with DA (TH^+) neurons. As to the kind of experiment: MPP^+ intoxication model, DA cell survival in midbrain cultures. Format: cell-based, Wistar rat. As to the method:
(§1) Animals were treated in accordance with the Guide for the Care and Use of Laboratory Animals (National Research Council, 1996), European Directive 86/609, and the guidelines of the local institutional animal care and use committee. Cultures were prepared from the ventral mesencephalon of gestational age 15.5 Wistar rat embryos (Janvier Breeding Center, Le Genest St Isle, France). Dissociated cells in suspension obtained by mechanical trituration of midbrain tissue pieces were seeded at a density of 1.2-1.5 10^5 cells/cm^2 onto tissue culture supports precoated with 1 mg/mL polyethylenimine diluted in borate buffer pH 8.3 as described (Michel et al., 1997. J Neurochem. 69(4):1499-507). […] They were fed daily by replacing 70% of the medium. Routinely, mesencephalic cultures were established on Nunc 24-well culture plates (Thermofischer Scientific, Rochester, N.Y.). Note that these cultures contain tyrosine hydroxylase (TH)^+ neurons that were exclusively dopaminergic (Traver et al., 2006. Mol Pharmacol. 70(1):30-40). TH^+ neurons represented approximately 1-2% of the total number of neuronal cells present in these cultures. The evaluation of the survival of DA neurons was performed by counting cells immunopositive for TH as described (Toulorge et al., 2011. Faseb J. 25(8):2563-73).
Treatments with MPP^+ were performed in cultures where the spontaneous death process was prevented by long-term exposure to depolarizing concentrations of K^+ (30 mM), in the presence of the glutamate receptor antagonist MK801 (5 μM) to prevent unwanted excitotoxic insults as described previously (Douhou et al., 2001. J Neurochem. 78(1):163-74). Treatments with MPP^+ and potential neuroprotective molecules were carried out between 5 and 7 DIV. The number of microglial cells was evaluated in this same model since MPP^+ is known to induce microglial proliferation (Henze et al., 2005. J Neurochem. 95(4):1069-77).
The cultures were fixed for 12 min using 4% formaldehyde in Dulbecco's phosphate-buffered saline (PBS), then washed twice with PBS before an incubation step at 4° C. for 24 h with the following antibodies. A monoclonal anti-TH antibody diluted 1/5000 (ImmunoStar, Inc., Hudson, Wis.) or a polyclonal anti-TH antibody diluted 1/1000 (US Biologicals, Salem, Mass.) was used to assess the survival of DA neurons. A monoclonal anti-MAP2 antibody diluted at 1/250 (clone AP20, Sigma-Aldrich) was used to assess the survival of cortical neurons. Microglial cells were characterized using a mouse anti-Ibal antibody (1/50; clone MRC OX-42; Pharmingen, BD Biosciences, Le Pont-de-Claix, France). All antibodies were diluted in PBS containing 0.2% Triton X-100, except the mouse anti-Ibal which was diluted in PBS only. Detection of the primary antibodies was performed with an Alexa Fluor-488 conjugate of an anti-mouse IgG antibody or with an Alexa Fluor-555 conjugate of an anti-rabbit antibody (1:500).

Data set [2] concerns midbrain DA (TH^+) neurons. Put plainly: Spontaneous and progressive dopaminergic (DA) cell death in midbrain cultures. Format: cell-based, Wistar rat. The note with it: NAD^+ 3 mM, antibodies 1 μg/mL. As to the method:
as §1
We used a model system in which DA cell loss was spontaneous. […]

In data set [3] the test system is cortical neurons. As to the kind of experiment: Excitotoxicity model (glutamate) in cortical cultures. It counts as cell-based, Wistar rat. The note with it: glutamate 75 μM between 12 and 14 DIV; NAD^+ 3 mM, antibodies 1 μg/mL. As to the method:
(§2) Animals were treated in accordance with the Guide for the Care and Use of Laboratory Animals (National Research Council, 1996), European Directive 86/609, and the guidelines of the local institutional animal care and use committee. Cultures were prepared from the cortex of gestational age 15.5 Wistar rat embryos (Janvier Breeding Center, Le Genest St Isle, France). Dissociated cells in suspension obtained by mechanical trituration of cortical tissue pieces were seeded onto tissue culture supports precoated with 1 mg/mL polyethylenimine diluted in borate buffer pH 8.3 according to the protocol previously described for mesencephalic cultures. […] They were fed daily by replacing 70% of the medium. Routinely, cortical cultures were established on Nunc 24-well culture plates (Thermofischer Scientific, Rochester, N.Y.).
Glutamate (75 μM) was added to cortical cultures between 12 and 14 DIV in the presence or the absence of potential neuroprotective treatments. The cultures were then fixed in formaldehyde and immunostained using anti-MAP-2 antibody. The area occupied by MAP-2^+ neurons was assessed using ImageJ.
(§3) The cultures were fixed for 12 min using 4% formaldehyde in Dulbecco's phosphate-buffered saline (PBS), then washed twice with PBS before an incubation step at 4° C. for 24 h with the following antibodies. […]

The subject of data set [4] is cortical neurons. As to the kind of experiment: Oxidative stress model (H2O2) in cortical cultures. Format: cell-based, Wistar rat. The note with it: H2O2 75 μM between 12 and 14 DIV; NAD^+ 3 mM, antibodies 1 μg/mL. As for the experimental part: as §2
H2O2 (75 μM) was added to cortical cultures between 12 and 14 DIV in the presence or the absence of potential neuroprotective molecules. The cultures were then fixed in formaldehyde and immunostained using anti-MAP-2 antibody. The area occupied by MAP-2′ neurons was assessed using ImageJ.
as §3

Data set [5] has as its system cortical neurons. As to the kind of experiment: Measurement of glucose uptake in cortical neurons (2-NBDG). Format: cell-based, Wistar rat. The note with it: acute treatment 30 min, 7 DIV; HB7 1 μg/mL, NAD^+ 3 mM, insulin 100 nM.
Description: In brief, cultures grown for 7 days were incubated with 2-NBDG (300 μM) for 30 min at 37° C. in the presence of test compounds in glucose-free N5 medium, washed twice to remove excess indicator, and then left to recover for 30 min before assessment. The fluorescent signal (excitation, 465 nm; emission, 540 nm) was acquired using an Arrayscan (ThermoFischer Scientific) and quantified using ImageJ. The average pixel intensity over the surface of each cell body was determined under the different experimental conditions. Background fluorescence was subtracted from raw data, and the results were expressed as a percentage of mean fluorescence intensity per cell under control conditions. 100 cells were analysed under each test condition.
The next data set concerns dopaminergic neurons. Put plainly: Prevention of dopaminergic neurons cell death (summary statement). Format: cell-based.
Data set [6] has as its system DA (TH^+) neurons. Put plainly: GDNF withdrawal model in midbrain cultures. The note with it: GDNF 20 ng/mL for 10 DIV, deprived 11-15 DIV; NAD^+ 3 mM, antibodies 1 μg/mL.
Excerpt: They were fed daily by replacing 70% of the medium. Routinely, mesencephalic cultures were established on Nunc 24-well culture plates (Thermofischer Scientific, Rochester, N.Y.). […] TH^+ neurons represented approximately 1-2% of the total number of neuronal cells present in these cultures.
To evaluate the efficacy of our compounds in a more mature population of DA neurons, we also used a variation of the previous model system. More precisely, spontaneous DA cell death was prevented up to 10 DIV by a chronic treatment with GDNF (20 ng/mL) to favor the maturation of healthy DA neurons. Then, DA cell death was triggered by total withdrawal of GDNF for the next 5 days.
The cultures were fixed for 12 min using 4% formaldehyde in Dulbecco's phosphate-buffered saline (PBS), then washed twice with PBS before an incubation step at 4° C. for 24 h with the following antibodies. A monoclonal anti-TH antibody diluted 1/5000 (ImmunoStar, Inc., Hudson, Wis.) or a polyclonal anti-TH antibody diluted 1/1000 (US Biologicals, Salem, Mass.) was used to assess the survival of DA neurons. […] All antibodies were diluted in PBS containing 0.2% Triton X-100, except the mouse anti-Ibal which was diluted in PBS only.
The subject of the next data set is interleukin-10 (IL-10). The note with it: in vivo; cited from earlier work.
The conditions of data set [7]: in humans; cited from earlier work.

In the case of `NC(=O)c1ccc[n+]([C@@H]2O[C@H](COP(=O)(O)OP(=O)([O-])OC[C@H]3O[C@@H](n4cnc5c(N)ncnc54)[C@H](O)[C@@H]3O)[C@@H](O)[C@@H]2F)c1` [ARA-F-NAD, ara-2′-deoxy-2′-fluoro-nicotinamide adenine dinucleotide], the “MPP^+-induced DA cell loss” value with DA (TH^+) neurons [1] (ARA-F-NAD 200 μM during the intoxication period, MPP^+ 3 μM) is given as “almost totally prevented”. Besides, the “neuroprotective effect in the presence of Ned-19” value with DA (TH^+) neurons [1] (ARA-F-NAD 200 μM, Ned-19 2 μM) was “abolished”.

Take `NC(=O)c1ccc[n+]([C@@H]2O[C@H](COP(=O)([O-])OP(=O)(O)OC[C@H]3O[C@@H](n4cnc5c(N)ncnc54)[C@H](O)[C@@H]3O)[C@@H](O)[C@H]2O)c1` [NAD^+, nicotinamide adenine dinucleotide]: in data set [2] (10 DIV cultures chronically exposed), the “number of midbrain DA (TH^+) neurons” value is reported as “increased the number of midbrain DA (TH^+) neurons”. The “neuroprotective effect in the presence of Ned-19” value in data set [2] (Ned-19 2 μM) is given as “slightly but significantly”. The “neuroprotective effect in the presence of Ex-527” value with DA (TH^+) neurons [1] (Ex-527 100 μM, HB7 1 μg/mL, NAD^+ 3 mM, MPP^+ model) was “only antagonized”. Moreover, in the data set on DA (TH^+) neurons [1] (MPP^+ 3 μM between 5 and 7 DIV, NAD^+ 3 mM, antibodies 1 μg/mL), the “MPP^+-induced DA cell loss” value was “either partially or almost totally prevented”. Further, the “neuroprotective effect in the presence of dantrolene” value in the data set on DA (TH^+) neurons [1] (dantrolene 30 μM (FIG. 9), HB7 1 μg/mL, NAD^+ 3 mM, cADPR 200 μM, MPP^+ model) was “only antagonized”. Besides, the protection from excitotoxicity entry with cortical neurons [3] is reported as “protected from excitotoxicity”. Further, the “protection from oxidative stress” value in the data set with cortical neurons [4] is reported as “protected from oxidative stress”. In addition, the glucose uptake entry with cortical neurons [5] is “only modestly increased glucose uptake”. Besides, in the data set with dopaminergic neurons, the “concentration at which the neuroprotective effect was exerted” value worked out at 3 mM. Further, in the data set on DA (TH^+) neurons [6], the “TH^+ neurons saved from death after GDNF deprivation” value is recorded as “saved from death”.

On to “daratumumab: anti-CD38 antibody approved for the treatment of multiple myeloma”, for which the “plasma levels of anti-inflammatory interleukin-10 (IL-10)” value in the data set on interleukin-10 (IL-10) is recorded as “decrease”.

Regarding isatuximab: anti-CD38 antibody, the “plasma levels of anti-inflammatory interleukin-10 (IL-10)” value in the data set with interleukin-10 (IL-10) is “decrease”.

B1: ABBV-8E12: intravenously injected monoclonal antibody cited for its brain/plasma ratio in humans (antibody, chains of the INN, looked up, V domains shown)
VH: EVKVVESGGGLVQPGGSMKLSCVVSGFTFSNYWVNWVRQAPGKGLEWVAQIRLKSDNYATHYEESVKGRFTISRDDSKSSVYLQMNNLRAEDSGIYYCTNWEDYWGQGTTVTVSS
VL: DIVLTQSPDSLAVSLGERATISCRASQSVSTSRYSYIHWYQQKPGQPPKLLIKYASNLESGVPSRFSGSGSGTDFTLNIHPLEPEDFATYYCHHSWEIPLTFGQGTKLEIK
Consider B1, for which the Brain/plasma ratio in data set [7] is given as 0.385%.
